This passage reports IC50 and melting point results from US8815853B2, “Pyrimidinone derivatives, preparation thereof and pharmaceutical use thereof” (Sanofi, priority 2010, dated 2014).

Data set [1] deals with T1, Vps34 (Homo sapiens, UniProt Q8NEB9).
T1 construct: purchased Invitrogen PV5126
As to the kind of experiment: Phosphorylation of phosphatidylinositol (PI) with Vps34 in vitro, ADP detected by TR-FRET (HTRF Transcreener ADP kit). Type of data set: biochemical. To be noted: 10 μM ATP, 55 μg/mL PI, about 3 nM of Vps34, 1 hour at room temperature; absolute CI50, average of 2 independent experiments; read-out: VPS34 CI 50. How it is done:
Study of the Phosphorylation of Phosphatidylinositol (PI) with Vps34 In Vitro
This test is based on the detection of the ADP produced during phosphorylation of PI with Bps34 in the presence of ATP. ADP is detected by TR-FRET (Time resolved—Fluorescence Resonance Energy transfer) by using the Transcreener kit marketed by Cisbio (HTRF® Transcreener® ADP, reference 62ADPPEB).
The reaction is started with 10 μL of an ATP solution (Sigma A7699) in a buffer A and lasts for 1 hour at room temperature. […] The enzyme amount is adapted to each batch so as to form about 2 μM of ADP during the reaction. In parallel, an ADP and ATP range giving the possibility of calibration results is prepared according to the indications of the kit. Controls not containing any enzyme (negative control) or not containing any molecules (positive control) are also prepared in parallel. […] Fluorescence emission is detected on a Rubystar apparatus at 620 and 665 nm. The signal ratio is calculated by dividing the 665 nm signal by the 620 nm signal and then by multiplying by 10,000. The signal ratios are converted into an ADP concentration by using the calibration range and according to the instructions of the kit. The percentages of inhibition of the molecules are calculated relatively to the positive controls according to the formula (1−signal ratio of the molecule/signal ratio of the positive control)×100. […] With 2 independent experiments it is possible to calculate the average of the CI50s.

SMILES strings stand for the structures.

T1 sequence (Q8NEB9 whole entry): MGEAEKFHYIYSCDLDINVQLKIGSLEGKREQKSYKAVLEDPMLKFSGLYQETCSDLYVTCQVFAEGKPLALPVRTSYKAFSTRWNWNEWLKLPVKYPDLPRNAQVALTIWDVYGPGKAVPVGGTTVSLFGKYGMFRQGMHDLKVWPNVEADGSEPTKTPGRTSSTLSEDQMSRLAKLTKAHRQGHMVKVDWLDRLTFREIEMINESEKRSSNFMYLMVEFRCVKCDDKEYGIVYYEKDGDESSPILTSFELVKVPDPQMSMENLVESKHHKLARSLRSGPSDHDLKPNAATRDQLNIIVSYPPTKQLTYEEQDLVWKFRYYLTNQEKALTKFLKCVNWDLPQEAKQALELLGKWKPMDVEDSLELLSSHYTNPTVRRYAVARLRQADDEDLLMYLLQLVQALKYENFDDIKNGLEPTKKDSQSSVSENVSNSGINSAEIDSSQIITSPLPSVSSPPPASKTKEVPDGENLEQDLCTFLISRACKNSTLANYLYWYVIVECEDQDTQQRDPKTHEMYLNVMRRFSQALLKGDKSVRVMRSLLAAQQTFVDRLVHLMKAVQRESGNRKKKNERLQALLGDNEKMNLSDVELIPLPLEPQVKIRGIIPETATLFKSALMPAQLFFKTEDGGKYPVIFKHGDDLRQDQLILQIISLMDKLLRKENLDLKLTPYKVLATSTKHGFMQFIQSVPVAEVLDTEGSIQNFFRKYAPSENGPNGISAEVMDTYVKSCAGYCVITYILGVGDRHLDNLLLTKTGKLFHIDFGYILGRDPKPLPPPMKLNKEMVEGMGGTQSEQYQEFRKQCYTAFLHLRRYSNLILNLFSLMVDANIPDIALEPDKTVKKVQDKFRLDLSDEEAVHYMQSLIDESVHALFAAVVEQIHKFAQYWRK

Consider `COCCN1c2nc(N3CCOCC3)cc(=O)n2CC12CCCC2` [Example 8a, 1′-(2-Methoxyethyl)-7′-morpholin-4-ylspiro[cyclopentane-1,2′-imidazo[1,2-a]pyrimidin]-5′-one], for which the IC50 in data set [1] was above 100 nM.
For the molecule `O=c1cc(N2CCOCC2)nc2n1CC[C@@H](C(F)(F)F)N2CC1CC1` [Example 2b, (8S)-9-(Cyclopropylmethyl)-2-(morpholin-4-yl)-8-(trifluoromethyl)-6,7,8,9-tetrahydro-4H-pyrimido[1,2-a]pyrimidin-4-one], the IC50 in data set [1] is below 10 nM.
As to `COCCN1c2nc(N3CCOCC3)cc(=O)n2CCC1(C)C` [Example 12b, 9-(2-Methoxyethyl)-8,8-dimethyl-2-(morpholin-4-yl)-6,7,8,9-tetrahydro-4H-pyrimido[1,2-a]pyrimidin-4-one], the IC50 in data set [1] lay in the range of 10 to 100 nM.
As to `CC(C)(O)CN1c2nc(N3CCOCC3)cc(=O)n2C[C@@]1(C)C(F)(F)F` [Example 5a, (S)-1-(2-Hydroxy-2-methyl-propyl)-2-methyl-7-(morpholin-4-yl)-2-(trifluoromethyl)-2,3-dihydroimidazo[1,2-a]pyrimidin-5(1H)-one], the melting point came to 72 °C. In data set [1], the IC50 lay in the range of 10 to 100 nM.
For `CCC(CC)CN1c2nc(N3CCOCC3)cc(=O)n2C[C@@]1(C)C(F)(F)F` [Example 1a, (2S)-1-(2-Ethylbutyl)-2-methyl-7-(morpholin-4-yl)-2-(trifluoromethyl)-2,3-dihydroimidazo[1,2-a]pyrimidin-5(1H)-one], the IC50 in data set [1] is below 10 nM.
Turning to `CC(C)OCCN1c2nc(N3CCOCC3)cc(=O)n2CC12CCCC2` [Example 9a, 1′-(2-isopropoxyethyl)-7′-morpholin-4-ylspiro[cyclopentane-1,2′-imidazo[1,2-a]pyrimidin]-5′-one], in data set [1], the IC50 fell in the range of 10 to 100 nM.
Still for that read-out and setting: then `CC(C)OCCN1c2nc(N3CCOCC3)cc(=O)n2CC[C@@]1(C)C(F)(F)F` [Example 11Ab, (8S)-8-Methyl-2-(morpholin-4-yl)-9-(2-(propan-2-yloxy)ethyl)-8-(trifluoromethyl)-6,7,8,9-tetrahydro-4H-pyrimido[1,2-a]pyrimidin-4-one], with below 10 nM; and `C[C@@]1(C(F)(F)F)Cn2c(nc(N3CCOCC3)cc2=O)N1C1CCCC1` [Example 3a, (2S)-1-Cyclopentyl-2-methyl-7-(morpholin-4-yl)-2-(trifluoromethyl)-2,3-dihydroimidazo[1,2-a]pyrimidin-5(1H)-one], with below 10 nM.
Molecule `COC(C)(C)CN1c2nc(N3CCOCC3)cc(=O)n2CC[C@H]1C(F)(F)F` [Example 10b, (S)-9-(2-Methoxy-2-methyl-propyl)-2-(morpholin-4-yl)-8-trifluoromethyl-6,7,8,9-tetrahydro-4H-pyrimido[1,2-a]pyrimidin-4-one] registered a melting point of 172 °C. The IC50 in data set [1] was in the range of 10 to 100 nM.
On to `CC(C)(O)CN1c2nc(N3CCOCC3)cc(=O)n2CC[C@H]1C(F)(F)F` [Example 8b, (8S)-9-(2-Hydroxy-2-methylpropyl)-2-(morpholin-4-yl)-8-(trifluoromethyl)-6,7,8,9-tetrahydro-4H-pyrimido[1,2-a]pyrimidin-4-one], for which, in data set [1], the IC50 is below 10 nM.
For the molecule `O=c1cc(N2CCOCC2)nc2n1CC[C@@H](C(F)(F)F)N2CCOCC(F)(F)F` [Example 6b, (S)-2-(Morpholin-4-yl)-9-[2-(2,2,2-trifluoro-ethoxy)-ethyl]-8-(trifluoromethyl)-6,7,8,9-tetrahydro-4H-pyrimido[1,2-a]pyrimidin-4-one], the melting point came to 107.8 °C. Moreover, the IC50 in data set [1] fell in the range of 10 to 100 nM.
Take `CC(C)OCCN1c2nc(N3CCOCC3)cc(=O)n2CC1(C)C` [Example 7a, 1-(2-Isopropoxyethyl)-2,2-dimethyl-7-(morpholin-4-yl)-2,3-dihydroimidazo[1,2-a]pyrimidin-5(1H)-one]: in data set [1], the IC50 is above 100 nM.
Regarding `CC(C)OCCN1c2nc(N3CCOCC3)cc(=O)n2CCC1(C)C` [Example 13b, 9-(2-Isopropoxyethyl)-8,8-dimethyl-2-(morpholin-4-yl)-6,7,8,9-tetrahydro-4H-pyrimido[1,2-a]pyrimidin-4-one], in data set [1], the IC50 was 10 to 100 nM.
The same measure, in the same setting: then `COC(C)(C)CN1c2nc(N3CCOCC3)cc(=O)n2C[C@@]1(C)C(F)(F)F` [Example 6a, (S)-1-(2-Methoxy-2-methyl-propyl)-2-methyl-7-(morpholin-4-yl)-2-(trifluoromethyl)-2,3-dihydroimidazo[1,2-a]pyrimidin-5(1H)-one], with below 10 nM.
On the same count and under the same terms, the figure for `CC(C)OCCN1CC2(CC2)Cn2c1nc(N1CCOCC1)cc2=O` [Example 16b, 1-(2-Isopropoxyethyl)-8′-(morpholin-4-yl)-1′,2′-dihydro-spiro[cyclopropane-1,3′-pyrimido[1,2-a]pyrimidin]-6′-one] is 10 to 100 nM; for `CC(C)OCCN1c2nc(N3CCOCC3)cc(=O)n2CC[C@]1(C)C(F)(F)F` [Example 11Bb, (8R)-8-Methyl-2-(morpholin-4-yl)-9-(2-(propan-2-yloxy)ethyl)-8-(trifluoromethyl)-6,7,8,9-tetrahydro-4H-pyrimido[1,2-a]pyrimidin-4-one] it is above 100 nM.
For `CC(C)OCCN1c2nc(N3CCOCC3)cc(=O)n2C[C@@]1(C)C(F)(F)F` [Example 4a, (S)-1-(2-Isopropoxy-ethyl)-2-methyl-7-(morpholin-4-yl)-2-(trifluoromethyl)-2,3-dihydroimidazo[1,2-a]pyrimidin-5(1H)-one], the melting point came to 88 °C. In addition, the IC50 in data set [1] is 10 to 100 nM.
`CCC(CC)CN1c2nc(N3CCOCC3)cc(=O)n2CC[C@H]1C(F)(F)F` [Example 1b, (8S)-9-(2-Ethylbutyl)-2-(morpholin-4-yl)-8-(trifluoromethyl)-6,7,8,9-tetrahydro-4H-pyrimido[1,2-a]pyrimidin-4-one]: in data set [1], the IC50 is below 10 nM.
Turning to `Cc1c(N2CCOCC2)nc2n(c1=O)CC[C@@H](C(F)(F)F)N2CC(C)(C)O` [Example 9b, (S)-9-(2-Hydroxy-2-methyl-propyl)-3-methyl-2-(morpholin-4-yl)-8-trifluoromethyl-6,7,8,9-tetrahydro-4H-pyrimido[1,2-a]pyrimidin-4-one], the melting point is 170 °C. The IC50 in data set [1] was above 100 nM.
The molecule `CC(C)OCCN1c2nc(N3CCOCC3)c(F)c(=O)n2CC[C@H]1C(F)(F)F` [Example 7b, (8S)-3-Fluoro-9-(2-isopropoxy-ethyl)-2-(morpholin-4-yl)-8-(trifluoromethyl)-6,7,8,9-tetrahydro-4H-pyrimido[1,2-a]pyrimidin-4-one] registered a melting point of 117 °C. The IC50 in data set [1] is below 10 nM.
Taken in the same sequence, the figures for `O=c1cc(N2CCOCC2)nc2n1CC[C@@H](C(F)(F)F)N2CCO` [Example 4b, (8S)-9-(2-Hydroxyethyl)-2-(morpholin-4-yl)-8-(trifluoromethyl)-6,7,8,9-tetrahydro-4H-pyrimido[1,2-a]pyrimidin-4-one] were 117 °C and 10 to 100 nM.
Turning to `C[C@@]1(C(F)(F)F)Cn2c(nc(N3CCOCC3)cc2=O)N1C1CC1` [Example 2a, (2S)-1-Cyclopropyl-2-methyl-7-(morpholin-4-yl)-2-(trifluoromethyl)-2,3-dihydroimidazo[1,2-a]pyrimidin-5(1H)-one], the IC50 in data set [1] is below 10 nM.
`CS(=O)(=O)CCN1c2nc(N3CCOCC3)cc(=O)n2CC[C@H]1C(F)(F)F` [Example 17b, (8S)-9-(2-Methanesulfonyl-ethyl)-2-morpholin-4-yl-8-trifluoromethyl-6,7,8,9-tetrahydro-pyrimido[1,2-a]pyrimidin-4-one] returned a melting point of 96 °C. Moreover, in data set [1], the IC50 is below 10 nM.
For the molecule `COCCN1CC(C)(C)Cn2c1nc(N1CCOCC1)cc2=O` [Example 14b, 9-(2-Methoxyethyl)-7,7-dimethyl-2-(morpholin-4-yl)-6,7,8,9-tetrahydro-4H-pyrimido[1,2-a]pyrimidin-4-one], in data set [1], the IC50 is above 100 nM.
As for `O=c1cc(N2CCOCC2)nc2n1CC[C@@H](C(F)(F)F)N2C1CCCC1` [Example 3b, (8S)-9-Cyclopentyl-2-(morpholin-4-yl)-8-(trifluoromethyl)-6,7,8,9-tetrahydro-4H-pyrimido[1,2-a]pyrimidin-4-one], the IC50 in data set [1] was below 10 nM.
On the same count and under the same terms, then `CC(C)OCCN1CC(C)(C)Cn2c1nc(N1CCOCC1)cc2=O` [Example 15b, 9-(2-Isopropoxyethyl)-7,7-dimethyl-2-(morpholin-4-yl)-6,7,8,9-tetrahydro-4H-pyrimido[1,2-a]pyrimidin-4-one], with above 100 nM.

By melting point is commonly meant the temperature of the solid-liquid transition.
